This passage reports EC50 results from patent publication US9802927B2, “Oxadiazine compounds and methods of use thereof” (Denali Therapeutics, Inc., priority 2015, dated 2017).

Structures are written as SMILES. pEC50: −log10 of the molar value.

The subject of the test is Aβ42. The test can be described thus: In vitro cell screening assay in H4 cells expressing human APP751: Aβ42 by sandwich ELISA. The test is classed as cell-based. As to conditions: compounds 0.003-10 μM, incubated overnight (16-18 h), sandwich ELISA of supernatant. A digest of the protocol:
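H4 neuroglioma cells stably expressing wild-type human APP751, switched to Pro293 medium and treated with compounds (0.003-10 μM, 0.33% DMSO) for 16-18 h at 37 °C. Supernatant Aβ42 quantified by sandwich ELISA (C-terminal capture, 4G8-HRP detection, A450); EC50 by sigmoidal fit normalized to DMSO and DAPT controls.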
For orientation: An ELISA detects its analyte on a solid surface through an enzyme-linked reagent.
In the case of `COc1nc(C2=NOCC(c3ccc4scnc4c3)N2)ccc1-n1cnc(C)c1` (single isomer, unassigned; (-)) [Example 240A, (−)-5-(benzo[d]thiazol-5-yl)-3-(6-methoxy-5-(4-methyl-1H-imidazol-1-yl)pyridin-2-yl)-5,6-dihydro-4H-1,2,4-oxadiazine], the pEC50 (commonly −log10 of the EC50, conventionally taken in molar units) was below 5.52.

`COc1nc(C2=NOCC(c3nn(C)c4ccc(C(F)(F)F)cc34)N2)ccc1-n1cnc(C)c1` (single isomer, unassigned; (-)) [Example 241A, (−)-3-(6-methoxy-5-(4-methyl-1H-imidazol-1-yl)pyridin-2-yl)-5-(1-methyl-5-(trifluoromethyl)-1H-indazol-3-yl)-5,6-dihydro-4H-1,2,4-oxadiazine] gave a negative logarithm of the EC50 (pEC50) of 6.41.

Turning to `COc1nc(C2=NOCC(c3cccc(OC(F)(F)F)c3)N2)ccc1-n1cnc(C)c1` (single isomer, unassigned; (-)) [Example 242A, (−)-3-(6-methoxy-5-(4-methyl-1H-imidazol-1-yl)pyridin-2-yl)-5-(3-(trifluoromethoxy)phenyl)-5,6-dihydro-4H-1,2,4-oxadiazine], the negative-log EC50 (pEC50) is 6.15.

Molecule `COc1nc(C2=NOCC(c3ccc(C4CC4)c(Cl)c3)N2)ccc1-n1cnc(C)c1` (single isomer, unassigned; (-)) [Example 243A, (−)-5-(3-chloro-4-cyclopropylphenyl)-3-(6-methoxy-5-(4-methyl-1H-imidazol-1-yl)pyridin-2-yl)-5,6-dihydro-4H-1,2,4-oxadiazine] gave a pEC50 of 6.60.

The molecule `COc1nc(C2=NOCC(c3cccc(Cl)c3)N2)ccc1-n1cnc(C)c1` (single isomer, unassigned; (-)) [Example 244A, (−)-5-(3-chlorophenyl)-3-(6-methoxy-5-(4-methyl-1H-imidazol-1-yl)pyridin-2-yl)-5,6-dihydro-4H-1,2,4-oxadiazine] showed a pEC50 of 6.18.

Take `COc1nc(C2=NOCC(c3cn(C)c4ccc(C#N)cc34)N2)ccc1-n1cnc(C)c1` (single isomer, unassigned; (-)) [Example 245A, (−)-3-(3-(6-methoxy-5-(4-methyl-1H-imidazol-1-yl)pyridin-2-yl)-5,6-dihydro-4H-1,2,4-oxadiazin-5-yl)-1-methyl-1H-indole-5-carbonitrile]: the pEC50 is 6.26.

`COc1nc(C2=NOCC(C3Cc4ccccc4C3)N2)ccc1-n1cnc(C)c1` (single isomer, unassigned; (-)) [Example 246A, (−)-5-(2,3-dihydro-1H-inden-2-yl)-3-(6-methoxy-5-(4-methyl-1H-imidazol-1-yl)pyridin-2-yl)-5,6-dihydro-4H-1,2,4-oxadiazine] showed a pEC50 of 6.24.

As for `COc1nc(C2=NOCC(c3cn(C)c4cccc(C#N)c34)N2)ccc1-n1cnc(C)c1` (single isomer, unassigned; (-)) [Example 247B, (−)-3-(3-(6-methoxy-5-(4-methyl-1H-imidazol-1-yl)pyridin-2-yl)-5,6-dihydro-4H-1,2,4-oxadiazin-5-yl)-1-methyl-1H-indole-4-carbonitrile], the pEC50 was 7.10.

Regarding `COc1nc(C2=NOCC(c3ccc4c(c3)CCC4)N2)ccc1-n1cnc(C)c1` (single isomer, unassigned; (-)) [Example 248A, (−)-5-(2,3-dihydro-1H-inden-5-yl)-3-(6-methoxy-5-(4-methyl-1H-imidazol-1-yl)pyridin-2-yl)-5,6-dihydro-4H-1,2,4-oxadiazine], the pEC50 is 6.32.

For `COc1nc(C2=NOCC(c3cn(C)c4cc(C#N)ccc34)N2)ccc1-n1cnc(C)c1` (single isomer, unassigned; (-)) [Example 249A, (−)-3-(3-(6-methoxy-5-(4-methyl-1H-imidazol-1-yl)pyridin-2-yl)-5,6-dihydro-4H-1,2,4-oxadiazin-5-yl)-1-methyl-1H-indole-6-carbonitrile], the pEC50 is 6.37.

In turn, `COc1ccc2c(c1)c(C1CON=C(c3ccc(-n4cnc(C)c4)c(OC)n3)N1)cn2C` (single isomer, unassigned; (-)) [Example 250A, (−)-5-(5-methoxy-1-methyl-1H-indol-3-yl)-3-(6-methoxy-5-(4-methyl-1H-imidazol-1-yl)pyridin-2-yl)-5,6-dihydro-4H-1,2,4-oxadiazine] showed a pEC50 of 6.70.

As for `COc1nc(C2=NOCC(c3cn(C)c4cccc(OC)c34)N2)ccc1-n1cnc(C)c1` (single isomer, unassigned; (-)) [Example 252A, (−)-5-(4-methoxy-1-methyl-1H-indol-3-yl)-3-(6-methoxy-5-(4-methyl-1H-imidazol-1-yl)pyridin-2-yl)-5,6-dihydro-4H-1,2,4-oxadiazine], the pEC50 is 6.80.

`COc1nc(C2=NOCC(c3cn(C)c4cc(Cl)cc(OC)c34)N2)ccc1-n1cnc(C)c1` (single isomer, unassigned; (-)) [Example 254A, (−)-5-(6-chloro-4-methoxy-1-methyl-1H-indol-3-yl)-3-(6-methoxy-5-(4-methyl-1H-imidazol-1-yl)pyridin-2-yl)-5,6-dihydro-4H-1,2,4-oxadiazine]: the pEC50 was 6.83.

`COc1cc2c(cc1Cl)c(C1CON=C(c3ccc(-n4cnc(C)c4)c(OC)n3)N1)cn2C` (single isomer, unassigned; (-)) [Example 255A, (−)-5-(5-chloro-6-methoxy-1-methyl-1H-indol-3-yl)-3-(6-methoxy-5-(4-methyl-1H-imidazol-1-yl)pyridin-2-yl)-5,6-dihydro-4H-1,2,4-oxadiazine] had a pEC50 of 7.15.

Consider `COc1nc(C2=NOCC(c3cn(C)c4cc(S(C)(=O)=O)ccc34)N2)ccc1-n1cnc(C)c1` (single isomer, unassigned; (-)) [Example 256A, (−)-3-(6-methoxy-5-(4-methyl-1H-imidazol-1-yl)pyridin-2-yl)-5-(1-methyl-6-(methylsulfonyl)-1H-indol-3-yl)-5,6-dihydro-4H-1,2,4-oxadiazine], for which the pEC50 is 5.59.

Turning to `COc1nc(C2=NOCC(c3cn(C)c4cc(F)c(C)cc34)N2)ccc1-n1cnc(C)c1` (single isomer, unassigned; (-)) [Example 257A, (−)-5-(6-fluoro-1,5-dimethyl-1H-indol-3-yl)-3-(6-methoxy-5-(4-methyl-1H-imidazol-1-yl)pyridin-2-yl)-5,6-dihydro-4H-1,2,4-oxadiazine], the pEC50 was 6.92.

Take `COc1ccc2c(C3CON=C(c4ccc(-n5cnc(C)c5)c(OC)n4)N3)cn(C)c2c1` (single isomer, unassigned; (-)) [Example 258A, (−)-5-(6-methoxy-1-methyl-1H-indol-3-yl)-3-(6-methoxy-5-(4-methyl-1H-imidazol-1-yl)pyridin-2-yl)-5,6-dihydro-4H-1,2,4-oxadiazine]: the pEC50 is 6.81.

As to `COc1nc(C2=NOCC(c3cc4cc(C(F)(F)F)ccc4o3)N2)ccc1-n1cnc(C)c1` (single isomer, unassigned; (-)) [Example 259A, (−)-3-(6-methoxy-5-(4-methyl-1H-imidazol-1-yl)pyridin-2-yl)-5-(5-(trifluoromethyl)benzofuran-2-yl)-5,6-dihydro-4H-1,2,4-oxadiazine], the pEC50 was 5.61.

In turn, `COc1nc(C2=NOCC(c3cc4ccc(C(F)(F)F)cc4o3)N2)ccc1-n1cnc(C)c1` (single isomer, unassigned; (-)) [Example 260A, (−)-3-(6-methoxy-5-(4-methyl-1H-imidazol-1-yl)pyridin-2-yl)-5-(6-(trifluoromethyl)benzofuran-2-yl)-5,6-dihydro-4H-1,2,4-oxadiazine] gave a pEC50 of 5.63.
